Laboratory results taken from patent US7893284B2 (Sterix Limited, priority 2004, dated 2011).

Tests used:
[1] = tested on: A2780 Ovarian Cancer Cells; experiment: Cell proliferation IC50, A2780; type: cell-based; settings: Homo sapiens
Procedure: The effect of drugs on the proliferation of cells was measured using a microtiter plate assay (Cell Titer 96 proliferation assay, Promega, Hampshire, UK).

[2] = tested on: Human Umbilical Vein Cells; experiment: 96 well plate MTS proliferation assay, Human Umbilical Vein Cells; type: cell-based; settings: read-out: mean inhibition of three wells +/-Sds
Source text: Human Umbilical Vein Cells; 96 well plate MTS proliferation assay, mean inhibition of three wells +/−Sds.

Human Dermal Fibroblasts = experiment: 96 well plate MTS proliferation assay, Human Dermal Fibroblasts; type: cell-based; settings: Fibroblast, read-out: mean inhibition of three wells +/-Sds
Source text: Human Dermal Fibroblasts; 96 well plate MTS proliferation assay, mean inhibition of three wells +/−Sds.

[3] = tested on: human umbilical vein endothelial cells (HUVECs); experiment: Tubule formation, Angiogenesis kit, co-culture of HUVECs and dermal fibroblasts; type: cell-based
Procedure: The effects of drugs on tubule formation (measured as a marker of their anti-angiogenic potential) was assessed using an Angiogenesis kit (TCS-Cellworks Ltd (Bucks, UK). For this, human umbilical vein endothelial cells (HUVECs) were cultured in a 24-well plate within a matrix of human diploid fibroblasts of dermal origin. The co-cultured cells were incubated throughout the experiment at 37° C. under 5% CO2 in a humidified incubator. On day 1, the culture medium was removed and replaced with medium containing the drugs under investigation. On days 4, 7 and 9, the medium was replaced with fresh medium containing the drugs under investigation. On day 11, the cells were washed with PBS and 70% ethanol (1 ml) added to each well for 30 min to fix the cells. After fixation, the cells were washed with blocking buffer (1 ml PBS+1% bovine serum albumin, Sigma, UK) and stained with either von Willebrand's factor or CD31. The extent of tubule formation was quantified by manual scoring or by computer analysis. Images were captured using a Kodak DC120 digital camera. In addition, details of changes in tubule formation induced by drugs were also recorded by high definition scanning of plates with some of the scans being presented as Photoshop processed images.
In this assay, the ability of STX641 (and related compounds) to act as an inhibitor of angiogenesis was examined using a co-culture of HUVECs and dermal fibroblasts. In this system, the endothelial cells initially form small islands within the fibroblast matrix. They subsequently proliferate and enter a migratory phase during which they move through the matrix to form thread-like tubule structures. These coalesce to form a network of anastomosing tubules. In FIG. 5, for untreated (control) co-cultures of HUVECs and dermal fibroblasts, the thread-like nature of the extensive tubule network is clearly visible. […] In FIG. 6, plates have been recorded by high definition scanning and also processed to give pixalated images.

Tubulin = experiment: Inhibition of taxol-induced microtubule polymerization (turbidity at 350 nm); type: biochemical; settings: 20 μM, tubulin 1 mg/ml, FIG. 3
Procedure: The ability of drugs to inhibit taxol-induced polymerisation of tubulin was measured by turbidity at 350 nm. Tubulin (Cryoskeleton Inc., Denver, Colo.), at a final concentration of 1 mg/ml was incubated at 32° C. in G-PEM buffer [80 mM piperazine-N,N′-bis (2-ethane sulfonic acid) sequisodium salt, 1 mM MgCl2, 1 mM EGTA and 1 mM GTP (pH 6.8)] in the presence of taxol with or without estrone derivatives [20 μM].
STX641 is thought to act as an anti-microtubule agent, i.e. to disrupt microtubule function. To show this, tubulin was incubated in the presence of taxol (a compound known to promote tubulin polymerisation). Taxol induced efficient in vitro microtubule assembly as reflected in the increase in turbidity as measured at 350 nm.

[4] = tested on: A2780 Ovarian Cancer Cells; experiment: Cell cycle arrest and annexin V FACs analysis, A2780; type: cell-based; settings: 1 μM, FIG. 12
Source text: For controls, there is no cell surface expression as indicated by a lack of a peak in the M2 region.

Row | SMILES | IC50 [1] [µM] | inhibition at 0.05 µM ([2]; 0.05 μM) [%] | inhibition at 0.1 µM ([2]; 0.10 μM) [%] | inhibition at 1 µM ([2]; 1.00 μM) [%] | inhibition at 5 µM ([2]; 5.00 μM) [%] | inhibition at 0.05 µM (Human Dermal Fibroblasts; 0.05 μM) [%] | inhibition at 0.1 µM (Human Dermal Fibroblasts; 0.10 μM) [%] | inhibition at 1 µM (Human Dermal Fibroblasts; 1.00 μM) [%] | inhibition at 5 µM (Human Dermal Fibroblasts; 5.00 μM) [%] | effect on tubule formation ([3]; 0.05 μM, FIG. 6) | inhibition of taxol-induced polymerisation of tubulin (Tubulin) | inhibition of tubule formation quantified by computer analysis ([3]; 0.05 μM and 0.1 μM, FIG. 7) | effect on tubule formation ([3]; 0.1 μM, FIG. 5) | G2/M arrest ([4]; 24 hours) | annexin V staining (apoptotic marker), FACs [4]
1 | COc1cc2c(cc1OS(N)(=O)=O)CCC1C2CC[C@@]2(C)C1CC[C@@H]2OS(N)(=O)=O (some centres unmarked) [STX 140, reference compound] | 0.28 | 7 | 18 | 59 | 49 | 0 | 2 | 9 | 18 | completely abolish tubule formation |  |  |  |  | 
2 | COc1cc2c(cc1OS(N)(=O)=O)CCC1C2CC[C@@]2(C)C1CC[C@@H]2CC#N (stereo in doubt) [Compound 33, Sulfamic acid 17-cyanomethyl-2-methoxy-13-methyl-7,8,9,11,12,13,14,15,16,17-decahydro-6H-cyclopenta[a]phenanthren-3-yl ester] | 0.09 |  |  |  |  |  |  |  |  | completely abolish tubule formation | effectively blocked tubulin assembly | completely inhibited tubule formation | completely destroyed | G2/M arrest | marked increase in staining
